Species: Rattus norvegicus
Assay: Open TG-GATES - Regimen: Single
Assay type: toxicity, organism-based, Sprague-Dawley
Set-up: regimen Single, gender Male, age 6 weeks
Settings: in vivo, po, 100 mg/kg, route gavage, dose level Low; for APTT / Bas / Eos / Fbg / Hb / Ht / Lym / MCH / MCHC / MCV / Mono / Neu / PT / Plat / RBC / Ret / WBC: tissue Blood; for KIDNEY_L / KIDNEY_R / KIDNEY_TOTAL: tissue Kidney; for LIVER: tissue Liver; for A/G / ALP / ALT / AST / BUN / CRE / Ca / Cl / DBIL / GLC / IP / K / LDH / Na / PL / RALB / TBIL / TC / TG / TP / gamma-GTP: tissue Plasma

COc1ccc(Cl)cc1C(=O)NCCc1ccc(S(=O)(=O)NC(=O)NC2CCCCC2)cc1 [GLYBURIDE]
TERMINAL_BW (3 h): 218.6 g | APTT (3 h): 19.3 s | Bas (3 h): 0% | Eos (3 h): 1% | Fbg (3 h): 215.8 mg/dL | Hb (3 h): 13.2 g/dL | Ht (3 h): 41% | Lym (3 h): 69.8% | MCH (3 h): 20.2 pg | MCHC (3 h): 32.3% | MCV (3 h): 62.6 fL | Mono (3 h): 2.8% | Neu (3 h): 25.4% | PT (3 h): 12.3 s | Plat (3 h): 125.3 x10_4/uL | RBC (3 h): 654.4 x10_4/ul | Ret (3 h): 8.1% | WBC (3 h): 93.1 x10_2/uL | KIDNEY_L (3 h): 0.9 g | KIDNEY_R (3 h): 1 g | KIDNEY_TOTAL (3 h): 1.9 g | LIVER (3 h): 9.7 g | A/G (3 h): 1.6 | ALP (3 h): 990.2 IU/L | ALT (3 h): 44.4 IU/L | AST (3 h): 69.4 IU/L | BUN (3 h): 12.8 mg/dL | CRE (3 h): 0.4 mg/dL | Ca (3 h): 10.7 mg/dL | Cl (3 h): 103 meq/L | DBIL (3 h): 0.1 mg/dL | GLC (3 h): 141 mg/dL | IP (3 h): 8.2 mg/dL | K (3 h): 3.7 meq/L | LDH (3 h): 145.6 IU/L | Na (3 h): 140.8 meq/L | PL (3 h): 174.8 mg/dL | RALB (3 h): 3.5 g/dL | TBIL (3 h): 0.2 mg/dL | TC (3 h): 89.8 mg/dL | TG (3 h): 87 mg/dL | TP (3 h): 5.7 g/dL | gamma-GTP (3 h): 1.4 IU/L | TERMINAL_BW (6 h): 214.4 g | APTT (6 h): 19.6 s | Bas (6 h): 0% | Eos (6 h): 0.8% | Fbg (6 h): 222.6 mg/dL | Hb (6 h): 13.9 g/dL | Ht (6 h): 42.5% | Lym (6 h): 76.2% | MCH (6 h): 20.6 pg | MCHC (6 h): 32.6% | MCV (6 h): 63.3 fL | Mono (6 h): 2.8% | Neu (6 h): 18.8% | PT (6 h): 12.7 s | Plat (6 h): 118.8 x10_4/uL | RBC (6 h): 671.8 x10_4/ul | Ret (6 h): 7.8% | WBC (6 h): 101.9 x10_2/uL | KIDNEY_L (6 h): 0.9 g | KIDNEY_R (6 h): 0.9 g | KIDNEY_TOTAL (6 h): 1.8 g | LIVER (6 h): 9.3 g | A/G (6 h): 1.7 | ALP (6 h): 837 IU/L | ALT (6 h): 40.2 IU/L | AST (6 h): 67.4 IU/L | BUN (6 h): 13 mg/dL | CRE (6 h): 0.4 mg/dL | Ca (6 h): 10.7 mg/dL | Cl (6 h): 104.4 meq/L | DBIL (6 h): 0.098 mg/dL | GLC (6 h): 168.6 mg/dL | IP (6 h): 8.6 mg/dL | K (6 h): 3.8 meq/L | LDH (6 h): 136 IU/L | Na (6 h): 141.8 meq/L | PL (6 h): 145.2 mg/dL | RALB (6 h): 3.5 g/dL | TBIL (6 h): 0.2 mg/dL | TC (6 h): 72.2 mg/dL | TG (6 h): 64.8 mg/dL | TP (6 h): 5.6 g/dL | gamma-GTP (6 h): 1.2 IU/L | TERMINAL_BW (9 h): 211.4 g | APTT (9 h): 19.7 s | Bas (9 h): 0% | Eos (9 h): 1% | Fbg (9 h): 223.4 mg/dL | Hb (9 h): 13.4 g/dL | Ht (9 h): 41.4% | Lym (9 h): 79.8% | MCH (9 h): 20.5 pg | MCHC (9 h): 32.5% | MCV (9 h): 63.2 fL | Mono (9 h): 3% | Neu (9 h): 15.6% | PT (9 h): 12.9 s | Plat (9 h): 122.6 x10_4/uL | RBC (9 h): 654.8 x10_4/ul | Ret (9 h): 8.2% | WBC (9 h): 77.5 x10_2/uL | KIDNEY_L (9 h): 0.9 g | KIDNEY_R (9 h): 0.9 g | KIDNEY_TOTAL (9 h): 1.9 g | LIVER (9 h): 8.7 g | A/G (9 h): 1.6 | ALP (9 h): 982.4 IU/L | ALT (9 h): 30.2 IU/L | AST (9 h): 69.2 IU/L | BUN (9 h): 12.4 mg/dL | CRE (9 h): 0.4 mg/dL | Ca (9 h): 10.3 mg/dL | Cl (9 h): 104.2 meq/L | DBIL (9 h): 0.084 mg/dL | GLC (9 h): 153.8 mg/dL | IP (9 h): 10.4 mg/dL | K (9 h): 3.4 meq/L | LDH (9 h): 136.6 IU/L | Na (9 h): 142.4 meq/L | PL (9 h): 143 mg/dL | RALB (9 h): 3.4 g/dL | TBIL (9 h): 0.1 mg/dL | TC (9 h): 79.6 mg/dL | TG (9 h): 42 mg/dL | TP (9 h): 5.6 g/dL | gamma-GTP (9 h): 1 IU/L | TERMINAL_BW (24 h): 227.7 g | APTT (24 h): 18.4 s | Bas (24 h): 0.4% | Eos (24 h): 1% | Fbg (24 h): 211.8 mg/dL | Hb (24 h): 13 g/dL | Ht (24 h): 37.6% | Lym (24 h): 76.8% | MCH (24 h): 21.7 pg | MCHC (24 h): 34.5% | MCV (24 h): 62.9 fL | Mono (24 h): 3.2% | Neu (24 h): 18.8% | PT (24 h): 13.1 s | Plat (24 h): 119.3 x10_4/uL | RBC (24 h): 599 x10_4/ul | Ret (24 h): 7.1% | WBC (24 h): 83.2 x10_2/uL | KIDNEY_L (24 h): 1 g | KIDNEY_R (24 h): 0.9 g | KIDNEY_TOTAL (24 h): 1.9 g | LIVER (24 h): 9.5 g | A/G (24 h): 1.7 | ALP (24 h): 950.8 IU/L | ALT (24 h): 35.4 IU/L | AST (24 h): 68.4 IU/L | BUN (24 h): 14.6 mg/dL | CRE (24 h): 0.4 mg/dL | Ca (24 h): 10.7 mg/dL | Cl (24 h): 103.4 meq/L | DBIL (24 h): 0.09 mg/dL | GLC (24 h): 212.4 mg/dL | IP (24 h): 7.9 mg/dL | K (24 h): 3.5 meq/L | LDH (24 h): 174.2 IU/L | Na (24 h): 142.2 meq/L | PL (24 h): 136 mg/dL | RALB (24 h): 3.4 g/dL | TBIL (24 h): 0.1 mg/dL | TC (24 h): 72.2 mg/dL | TG (24 h): 67.4 mg/dL | TP (24 h): 5.4 g/dL | gamma-GTP (24 h): 1.4 IU/L

— ChEMBL document CHEMBL3885861, “Open TG-GATES”
